This passage reports IC50 results from patent US9499553B2 (CHUGAI SEIYAKU KABUSHIKI KAISHA, priority 2013, dated 2016).

As a reminder, the IC50 is the concentration at which inhibition is half-maximal.

The first assay deals with T1, human NaPi-IIb (Homo sapiens, UniProt O95436).
T1 construct: expressed in transfected cells
T1 sequence (O95436 1-690): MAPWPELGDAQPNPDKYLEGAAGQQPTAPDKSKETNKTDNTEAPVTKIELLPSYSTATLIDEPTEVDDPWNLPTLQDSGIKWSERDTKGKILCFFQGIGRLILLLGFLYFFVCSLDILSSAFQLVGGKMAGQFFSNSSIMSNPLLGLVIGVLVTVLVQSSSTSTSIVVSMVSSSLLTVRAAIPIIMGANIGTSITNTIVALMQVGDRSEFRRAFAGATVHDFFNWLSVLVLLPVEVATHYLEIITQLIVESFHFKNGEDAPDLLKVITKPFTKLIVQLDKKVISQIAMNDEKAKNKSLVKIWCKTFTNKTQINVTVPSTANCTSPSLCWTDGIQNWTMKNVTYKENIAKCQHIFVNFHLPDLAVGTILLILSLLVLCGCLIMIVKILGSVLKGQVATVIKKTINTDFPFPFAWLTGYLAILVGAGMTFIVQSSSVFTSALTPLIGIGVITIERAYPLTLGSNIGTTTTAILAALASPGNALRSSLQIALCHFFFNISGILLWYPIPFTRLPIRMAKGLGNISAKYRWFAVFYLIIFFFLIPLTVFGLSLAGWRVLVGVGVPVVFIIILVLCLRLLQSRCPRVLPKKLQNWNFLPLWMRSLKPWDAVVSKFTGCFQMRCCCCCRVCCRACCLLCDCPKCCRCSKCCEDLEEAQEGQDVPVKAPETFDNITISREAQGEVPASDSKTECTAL
Briefly: Inhibitory effect on 33PO4 uptake into human NaPi-IIb-expressing CHO cells. Format: cell-based. The conditions noted are these: read-out: IC50. On the procedure:
Test Example 2: Inhibitory Effect on PO4 Uptake into Human NaPi-IIb-Expressing Cell CHO cells were transfected with human NaPi-IIb expression plasmids, and a stably human NaPi-IIb-expressing cell line was obtained using G418. The human NaPi-IIb-expressing cells were inoculated to a 96-well plate and incubated overnight in a CO2 incubator. […] After a given time, a 1/20 volume of buffer A containing ^33PO4 was added thereto and reacted at room temperature. After washing with ice-cold buffer A, a liquid scintillator was added to each reaction mixture, and the amount of ^33PO4 uptake was measured using TopCount.
On to `C[C@]12CCCN1N(Cc1cccc(F)c1F)C(=O)C(C(=O)Nc1ccc(Cl)cc1F)=C2O` [Example 76], for which the IC50 was found to be 6.6 µM.

Take `CN1N(Cc2ccc(OCCN3CCOCC3)c(F)c2F)C(=O)C(C(=O)Nc2ccc(Cl)cc2-c2ccc(C(F)(F)F)nc2)=C(O)C12CCCC2` [Example 288]: the half-inhibitory concentration (IC50) is 11 µM.

With `CN1N(Cc2ccc(OCCN3CCOC(C)(C)C3)c(F)c2F)C(=O)C(C(=O)Nc2ccc(C(F)(F)F)cc2-c2cc(C(F)(F)F)ncn2)=C(O)C12CCC2` [Example 342], the concentration for half-maximal inhibition (IC50) amounted to 8.8 µM.

Regarding `Cc1c(C#N)ncnc1-c1cc(C(F)(F)F)ccc1NC(=O)C1=C(O)C2(CCC2)N(C)N(Cc2ccc(OCCN3CCOCC3)c(F)c2F)C1=O` [Example 283], the IC50 turned out to be 17.7 µM.

In the case of `CN1N(Cc2cccc(F)c2F)C(=O)C(C(=O)Nc2ccc(C(F)(F)F)cc2-c2ccc(C(F)(F)F)nc2)=C(O)C12CCC2` [Example 301], the IC50 is 2.6 µM.

On to `CSc1ccc(-c2cc(C(F)(F)F)ccc2NC(=O)C2=C(O)C(C)(C)N(C)N(Cc3cccc(F)c3F)C2=O)cn1` [Example 310], for which the IC50 turned out to be 4.7 µM.

Consider `CN1N(Cc2ccc(C#CCN3CCOCC3)c(F)c2F)C(=O)C(C(=O)Nc2ccc(C(F)(F)F)cc2-c2cc(C(F)(F)F)ncn2)=C(O)C1(C)C` [Example 315], for which the IC50 came out at 9.8 µM.

As to `COc1cccc(-c2cc(C(F)(F)F)ccc2NC(=O)C2=C(O)[C@@]3(C)CCCN3N(Cc3ccc(C#CCOCCOCCO)c(F)c3F)C2=O)c1OC` [Example 139], the IC50 was determined as 17 µM.

`C[C@]12CCCN1N(Cc1ccc(OCCN3CCOCC3)c(F)c1F)C(=O)C(C(=O)Nc1ccc(C(F)(F)F)nc1-c1cncc(C(F)(F)F)c1)=C2O` [Example 106]: the IC50 came out at 12 µM.

For the compound `CC(C)(C)[C@H]1C(O)=C(C(=O)Nc2cc(F)c(Br)c(F)c2)C(=O)N(Cc2cccc(F)c2F)N1CC(F)(F)F` [Example 248], the IC50 was determined as 17.6 µM.

For `C[C@]12CCCN1N(Cc1cccc(OC(F)F)c1)C(=O)C(C(=O)Nc1ccc(C(F)(F)F)cc1-c1cc(C(F)(F)F)ncn1)=C2O` [Example 177], the IC50 was determined as 11.1 µM.

For `CCOc1cccc(-c2cc(C(F)(F)F)ccc2NC(=O)C2=C(O)[C@@]3(C)CCCN3N(Cc3cccc(F)c3F)C2=O)c1OC` [Example 66], the IC50 is 17.3 µM.

Regarding `C[C@]12CCCN1N(Cc1ccc(OCCN3CCOCC3)c(F)c1F)C(=O)C(C(=O)Nc1ccc(Cl)cc1-c1ccc(C(F)(F)F)nc1)=C2O` [Example 102], the IC50 was 10.9 µM.

As for `COc1cccc(-c2cc(C(F)(F)F)ccc2NC(=O)C2=C(O)[C@@]3(C)CCCN3N(Cc3ccc(C#CCCO)c(F)c3F)C2=O)c1OC` [Example 134], the IC50 is 19.7 µM.

Turning to `C[C@]12CCCN1N(Cc1cccc(F)c1F)C(=O)C(C(=O)Nc1ccc(C(F)(F)F)cc1-c1cnc3ccccc3c1)=C2O` [Example 83], the concentration for half-maximal inhibition (IC50) came out at 10.6 µM.

For the compound `CSc1ncc(-c2cc(C(F)(F)F)ccc2NC(=O)C2=C(O)[C@@]3(C)CCCN3N(Cc3ccc(C#CCCCCC(=O)O)c(F)c3F)C2=O)cn1` [Example 118, 7-[4-[[(4aR)-4-Hydroxy-4a-methyl-3-[[2-(2-methylsulfanylpyrimidin-5-yl)-4-(trifluoromethyl)phenyl]carbamoyl]-2-oxo-6,7-dihydro-5H-pyrrolo[1,2-b]pyridazin-1-yl]methyl]-2,3-difluorophenyl]hept-6-ynoate], the IC50 stood at 9.1 µM.

As for `CN1N(Cc2cccc(F)c2F)C(=O)C(C(=O)Nc2cc(F)c(Br)c(F)c2)=C(O)C12CCC2` [Example 257], the IC50 came to 6 µM.

As for `C[C@]12CCCN1N(Cc1c(F)cc(C#CC3(O)CCCC3)cc1F)C(=O)C(C(=O)Nc1ccc(C(F)(F)F)cc1-c1ccc(C(F)(F)F)nc1)=C2O` [Example 130], the concentration for half-maximal inhibition (IC50) was determined as 8.9 µM.

`CN1N(Cc2ccc(OCCCCCC(=O)O)c(F)c2F)C(=O)C(C(=O)Nc2ccc(C(F)(F)F)cc2-c2cc(C(F)(F)F)ncn2)=C(O)C12CCCC2` [Example 334]: the IC50 was found to be 10.3 µM.

For the compound `C[C@]12CCCN1N(Cc1cccc(F)c1F)C(=O)C(C(=O)Nc1ccc(C(F)(F)F)cc1-c1ncnc(C#N)c1Cl)=C2O` [Example 23], the IC50 is 6.9 µM.

`C[C@]12CCCN1N(Cc1cccc(F)c1F)C(=O)C(C(=O)Nc1ccc(Br)cn1)=C2O` [Example 78]: the IC50 was determined as 5.2 µM.

Turning to `CC1(C)C(O)=C(C(=O)Nc2ccc(C(F)(F)F)cc2-c2cc(C(F)(F)F)ncn2)C(=O)N(Cc2cccc(F)c2F)N1c1ccccc1` [Example 299], the IC50 turned out to be 18.8 µM.

The same assay, now with this note: read-out: IC50 against 33PO4 uptake into human NaPi-IIb-expressing cells.
`COCCN(C)CCOc1c(I)cc(CN2C(=O)C(C(=O)Nc3ccc(C(F)(F)F)cc3-c3cc(C(F)(F)F)ncn3)=C(O)C3(CCCC3)N2C)c(F)c1F` [Example 437, 7-[[2,3-Difluoro-5-iodo-4-[2-[2-methoxyethyl(methyl)amino]ethoxy]phenyl]methyl]-10-hydroxy-6-methyl-8-oxo-N-[4-(trifluoromethyl)-2-[6-(trifluoromethyl)pyrimidin-4-yl]phenyl]-6,7-diazaspiro[4.5]dec-9-ene-9-carboxamide]: the IC50 came to 19.5 µM.

Turning to `CCCN(CCN(C)CCOC)c1ccc(CN2C(=O)C(C(=O)Nc3ccc(C(F)(F)F)cc3-c3cc(C(F)(F)F)ncn3)=C(O)C3(CCCC3)N2C)c(F)c1F` [Example 444], the IC50 stood at 7.4 µM.

Consider `COCCN(CCOC)CCOc1ccc(CN2C(=O)C(C(=O)Nc3ccc(C(F)(F)F)cc3-c3cc(C(F)(F)F)ncn3)=C(O)C3(CCC3)N2C)c(F)c1F` [Example 348], for which the concentration for half-maximal inhibition (IC50) is 26.1 µM.

In the case of `COCCCN(C)C(=O)c1cc(CN2C(=O)C(C(=O)Nc3ccc(C(F)(F)F)cc3-c3cc(C(F)(F)F)ncn3)=C(O)C3(CCCC3)N2C)c(F)c(F)c1OCCN(C)CCOC` [Example 438], the IC50 was found to be 21.9 µM.

As for `CN1N(Cc2ccc(NCCN3CCOCC3)c(F)c2F)C(=O)C(C(=O)Nc2ccc(C(F)(F)F)cc2-c2cc(C(F)(F)F)ncn2)=C(O)C12CCCC2` [Example 447], the IC50 came out at 15.8 µM.

As for `COCCOc1cc(NC(=O)C2=C(O)C3(CCCC3)N(C)N(Cc3ccc(OCCN(C)CCOC)c(F)c3F)C2=O)c(-c2ncnc(C(F)(F)F)c2C)cc1C(F)(F)F` [Example 439, 7-[[2,3-Difluoro-4-[2-[2-methoxyethyl(methyl)amino]ethoxy]phenyl]methyl]-10-hydroxy-N-[5-(2-methoxyethoxy)-2-[5-methyl-6-(trifluoromethyl)pyrimidin-4-yl]-4-(trifluoromethyl)phenyl]-6-methyl-8-oxo-6,7-diazaspiro[4.5]dec-9-ene-9-carboxamide], the IC50 was found to be 18.9 µM.

`CN1N(Cc2ccc(OCCNC(CC(=O)O)CC(=O)O)c(F)c2F)C(=O)C(C(=O)Nc2ccc(C(F)(F)F)cc2-c2cc(C(F)(F)F)ncn2)=C(O)C12CCCC2` [Example 382, 3-[2-[2,3-Difluoro-4-[[10-hydroxy-6-methyl-8-oxo-9-[[4-(trifluoromethyl)-2-[6-(trifluoromethyl)pyrimidin-4-yl]phenyl]carbamoyl]-6,7-diazaspiro[4.5]dec-9-en-7-yl]methyl]phenoxy]ethylamino]pentanedioate]: the IC50 amounted to 21 µM.

`CN(CCOCCC(=O)N(C)C[C@H](O)[C@@H](O)[C@H](O)[C@H](O)CO)CCOc1ccc(CN2C(=O)C(C(=O)Nc3ccc(C(F)(F)F)cc3-c3cc(C(F)(F)F)ncn3)=C(O)C3(CCCC3)N2C)c(F)c1F` [Example 425]: the IC50 worked out at 28.1 µM.

Turning to `CN1CCC(Oc2ccc(CN3C(=O)C(C(=O)Nc4ccc(C(F)(F)F)cc4-c4cc(C(F)(F)F)ncn4)=C(O)C4(CCC4)N3C)c(F)c2F)CC1` [Example 411], the IC50 is 12.8 µM.
